Earlier results on 46 compounds are cited in the CATMoS acute toxicity set (Mansouri et al. 2021).

Several values for one entry are separate records, joined by “and”; a condition that tells them apart may be missing. Equal values may be shown once.

By LD50 is commonly meant the dose at which mortality reaches 50%.

The nature of this series: rat acute oral toxicity. The following applies: in vivo. An excerpt:
[…]The data set underlying the modeling effort for this project was initially compiled by NICEATM and U.S. EPA’s CCTE. Briefly, LD50 data were collected from rat acute oral systemic toxicity tests, including limit tests, ranges/confidence intervals, and discrete LD50 values. The full data set included 21,200 LD50 entries for 15,688 substances. […] Data were reviewed to ensure that LD50 values with obvious errors in the extracted data such as unit conversion errors (e.g., comma and decimal separator misplacements) were either fixed or removed. After this review, 16,209 LD50 values remained. Many of the chemicals represented had multiple LD50 entries, requiring that a single representative value per Chemical Abstracts Service Registry Number (CASRN) identifier be defined to facilitate modeling efforts. Based on ATWG feedback and to define the representative LD50 as a protective value while accounting for the distribution across multiple LD50s, the median of the lowest quartile was computed using only discrete LD50 values (omitting limit test data and range and confidence interval data). A detailed summary of the data compilation is available online on the NICEATM webpage dedicated to the collaborative modeling project (NTP 2020).
[…][…] For categorical designations, limit test and range/confidence interval LD50 data were integrated wherever possible. As such, the number of chemicals with end point values/calls varies across the modeling end points (Table 3) based on whether chemicals had representative LD50 values and/or other data. If a chemical had both, the representative value was used to determine categorical calls rather than limit test data. Some data were useable only for certain end points and categories depending on the thresholds. For example, ranges that spanned multiple hazard categories were considered only for the binary (very toxic/nontoxic) end points and omitted from rendering a determination for hazard category assignment.
[…]The final data set comprising 11,992 chemicals was split into training and evaluation sets […], respectively. This process was performed semirandomly by ordering chemicals based on the five end points (categorical and continuous LD50 values) and partitioning every fourth record into the evaluation set accordingly. This approach was taken to ensure an equivalent distribution of the LD50 values and the different hazard categories between the training and the evaluation sets without supervised sampling of the chemicals based on structures (Figure 1A). The sources of the chemical structures were also kept equivalent between the two sets, with chemical structures obtained from DSSTox, being the highest quality, representing over 75% of each set (Figure 1B).
`CCCCCCCCCCCCCCCCOCCOCCOCCOCCOCCOCCOCCOCCOCCOCCOCCOCCOCCOCCOCCOCCOCCOCCOCCOCCO`: the LD50 was 2500 mg/kg.

Turning to `CC(=O)Oc1ccc(Oc2c(I)cc(C(=O)O)cc2I)cc1I`, the LD50 is 4600 mg/kg.

Turning to `O=Cc1cccc(Br)c1`, the LD50 is 1130 mg/kg.

On to `O=C(c1ccccc1)c1ccc(O)cc1`, for which the LD50 is 12100 mg/kg.

As for `CN(Cc1cc(Br)cc(Br)c1N)C1CCCCC1`, the LD50 was 6000 mg/kg.

With `FC(F)(F)c1cccc(OCC2CNC(=S)O2)c1` (stereo unspecified), the LD50 was 524 mg/kg.

With `CN(C)C(=O)C(CCN1CCC(O)(c2ccc(Cl)cc2)CC1)(c1ccccc1)c1ccccc1`, the LD50 is 185 mg/kg and 98 mg/kg.

For `CCCCCCCC/C=C\CCCCCCCC(=O)N(C)CCS(=O)(=O)O`, the LD50 is 1700 mg/kg.

As to `Clc1ccc2c(c1)C(N1CCNCC1)=Nc1ccccc1O2`, the LD50 was 313 mg/kg.

As for `CCCCC(CC)COP(=O)(O)OCC(CC)CCCC` (stereo unspecified), the LD50 was 4940 mg/kg.

For `COc1ccc2c3c1O[C@H]1[C@@H](O)C=C[C@H]4[C@@H](C2)N(C)CC[C@@]341`, the LD50 is 85 mg/kg.

As to `CCN(CC)C(=O)c1nnn(-c2ccccc2)c1C`, the LD50 is 500 mg/kg.

Take `Oc1ccc(-c2ccc(O)cc2)cc1`: the LD50 is 4920 mg/kg.

Consider `CCC(C)NP1(=S)OCc2cc([N+](=O)[O-])ccc2O1` (stereo unspecified), for which the LD50 was 125 mg/kg.

As to `CCN(CC)C(=O)Nc1ccc(OCC(O)CNC(C)(C)C)c(C(C)=O)c1` (stereo unspecified), the LD50 was 2160 mg/kg.

For the compound `CCCCOCCC#N`, the LD50 was 7460 mg/kg.

`CN1CC(CC#N)CC2c3cccc4[nH]c(Cl)c(c34)CC21` (stereo unspecified): the LD50 was 290 mg/kg.

`CCCCCCCN1C(C)=CSC1=Cc1scc(C)[n+]1CCCCCCC`: the LD50 is 460 mg/kg.

Consider `Cc1ncc2cscc2c1O`, for which the LD50 is 1500 mg/kg.

As for `CCC(=O)O[C@]1(c2ccccc2)CCN(C)C[C@@H]1C`, the LD50 was 90 mg/kg.

For the compound `C=CC[N+]1(CCC(C)CCCC(C)C)CCCCC1` (stereo unspecified), the LD50 is 360 mg/kg.

Consider `CCOC(=O)c1c[n+](CC)c2n(c1=O)C(C)CCC2` (stereo unspecified), for which the LD50 is 1350 mg/kg.

As to `CN(C)C(=O)c1ccccc1O`, the LD50 is 2300 mg/kg.

With `S=c1[nH]c2ccccc2s1`, the LD50 was 631 mg/kg.

As for `CN(C)CCN(Cc1ccccc1)c1ccccc1`, the LD50 is 300 mg/kg.

Regarding `C[Si](Cl)(Cl)CCC(F)(F)F`, the LD50 is 1000 mg/kg.

Regarding `CCCCCCCCCCCCC(Br)C(=O)O` (stereo unspecified), the LD50 is 800 mg/kg.

Regarding `CCNC(N)=S`, the LD50 is 100 mg/kg.

Consider `OC1(c2ccc(F)cc2)c2ccccc2C2=NCCN21` (stereo unspecified), for which the LD50 is 200 mg/kg.

For the compound `C1CSCCS1`, the LD50 is 2770 mg/kg.

Take `CC(Cc1ccc(C(C)(C)C)cc1)CN1C[C@@H](C)O[C@@H](C)C1` (single isomer, unassigned): the LD50 is 3540 mg/kg.

With `O=P1(N(CCCl)CCCl)NCCCO1` (stereo unspecified), the LD50 is 94 mg/kg.

Take `CCCCCCCCCCCC[N+](C)(C)Cc1ccccc1`: the LD50 was 400 mg/kg and 230 mg/kg.

For the compound `CC(C)(C(N)=O)c1ccccc1`, the LD50 is 1650 mg/kg.

For `Nc1ccc(N=Nc2c(S(=O)(=O)O)cc3cc(S(=O)(=O)O)c(N=Nc4ccccc4)c(O)c3c2N)cc1`, the LD50 was 3000 mg/kg.

Turning to `CC(C)NCC(O)COc1cccc2[nH]ccc12` (stereo unspecified), the LD50 was 263 mg/kg.

As to `FC(F)(F)c1nc2c(Cl)c(Cl)c(Cl)cc2[nH]1`, the LD50 is 1.52 mg/kg.

Regarding `CCNC(=O)C(SP(=S)(OC)OC)C(=O)NCC`, the LD50 was 1000 mg/kg.

On to `CCOC(=O)[N-]c1c[n+](N2CCOCC2)no1`, for which the LD50 is 1050 mg/kg.

Consider `CC[C@@]1(O)C(=O)OCc2c1cc1n(c2=O)Cc2cc3ccccc3nc2-1`, for which the LD50 is 153 mg/kg.

As to `CC(C)N(CCC(C(N)=O)(c1ccccc1)c1ccccn1)C(C)C` (stereo unspecified), the LD50 is 880 mg/kg and 333 mg/kg.

Regarding `CCC(C)c1cnc2nc(N)nc(N)c2c1C` (stereo unspecified), the LD50 was 100 mg/kg.

For `CC1CCC(=O)O1` (stereo unspecified), the LD50 is 8800 mg/kg.

Turning to `CCCC[P+](CCCC)(CCCC)Cc1ccc(Cl)s1`, the LD50 was 455 mg/kg.

`CC(C)NC(=O)N1CC(=O)N(c2cc(Cl)cc(Cl)c2)C1=O`: the LD50 is 3500 mg/kg.

For `CC1CCCC2N(C)C=C(C(N)=O)C(=O)N12` (stereo unspecified), the LD50 was 370 mg/kg.
